Experimental findings from patent US9745335B2 (Blirt S.A., priority 2012, dated 2017) are described below.

What all share (format): cell-based
Data set [1] relates to Candida albicans ATCC 10231. Nature of the data set: antifungal activity in vitro, serial dilution in RPMI 1640. As for the experimental part: (§1) For the determination of antifungal activity in vitro we used method of serial dilution in buffered medium RPMI 1640, pH 7.0, in a 96-wells microplates, according to the standard procedure (National Committee for Clinical Laboratory Standards. Reference method for broth dilution antifungal susceptibility testing of yeast, approved standard, 2nd ed. M27-A2 vol. 22 Wayne, Pa., 2002). The optical density of cells suspension was measured using a microplates reader (Victor^3, Perkin-Elmer) at the wavelength λ=531 nm (A531). On the basis of obtained results the diagrams of relation between A531 values and concentration of examined compound were made.

The subject of data set [2] is Candida glabrata DSM 11226. Described as above. Here is the method:
as §1

The subject of data set [3] is Candida krusei DSM 6128. The description is as above. Here is the method:
as §1

The subject of data set [4] is Candida lusitaniae DSM 70102. The description is as above. Here is the method:
as §1

Data set [5] concerns Candida tropicalis KKP 334. Described as above. Here is the method:
as §1

Data set [6] relates to Saccharomyces cerevisiae ATCC 9763. The data set is described as above. As to conditions: RPMI 1640, pH 7.0; for Antifungal activity IC50: Saccharomyces cerevisiae ATCC 9763 (first head over MIC and IC50); for Antifungal activity MIC: Saccharomyces cerevisiae ATCC 9763. Here is the method: as §1
Data set [7] concerns Human erythrocytes. Nature of the data set: hemotoxicity determination (hemolytic activity). As for the experimental part:
The hemotoxicity determination was carried out by the serial dilutions method, according to the procedure described earlier (Slisz, M., et al., E., J Antibiot 57: 669-678 (2004). Human erythrocytes were suspended in the solution of saline to obtain a cell density of suspension 2×10^7/ml. Suitable amounts of diluted solutions of compounds were added to the cell suspension in tubes and were incubated at 37° C. for 30 minutes and then centrifuged (1700×g, 10 min, 4° C.). The concentration of hemoglobin in supernatant after centrifugation of erythrocytes suspension were determined by measuring the absorbance at wavelength λ=540 nm (A540). The maximum level of hemolysis was obtained after incubation of cells suspension in the presence of 0.1% Tritone X-100 (control sample). […] From these graphs, the EH50 values were read which are the interpolated concentrations of compound, for which the A540 value is exactly 50% of the A540 value measured for the control sample.

Like-named read-outs stand apart in the source and are kept apart here.

As for `Cc1cc(C)c(N2C(=O)CC(N[C@@H]3[C@H](O)[C@H](O[C@H]4/C=C/C=C/C=C/C=C/C=C/C=C/C=C/[C@H](C)[C@@H](O)[C@@H](C)[C@H](C)OC(=O)C[C@H](O)C[C@H](O)CC[C@@H](O)[C@H](O)C[C@H](O)C[C@]5(O)C[C@H](O)[C@@H](C(=O)O)[C@H](C4)O5)O[C@H](C)[C@H]3O)C2=O)c(C)c1` (stereo partly drawn) [Compound A1, N—[N-(2,4,6-trimethylphenyl)succinimidyl]amphotericin B], the “Antifungal activity MIC” value in data set [1] is 4 µg/mL; in data set [2], 8 µg/mL; in data set [3] it was 8 µg/mL; in data set [4], 2 µg/mL; in data set [5], 4 µg/mL; in data set [6], 2 µg/mL. Moreover, the “Antifungal activity IC50” value in data set [6] was determined as 0.98 µg/mL. In addition, the “Hemotoxi EH50” value in data set [7] is more than 100 µg/mL.
On to `C[C@@H]1[C@H](O)[C@@H](C)/C=C/C=C/C=C/C=C/C=C/C=C/C=C/[C@H](O[C@@H]2O[C@H](C)[C@@H](O)[C@H](NC3CC(=O)N(Cc4ccccc4)C3=O)[C@@H]2O)C[C@@H]2O[C@](O)(C[C@@H](O)C[C@@H](O)[C@H](O)CC[C@@H](O)C[C@@H](O)CC(=O)O[C@H]1C)C[C@H](O)[C@H]2C(=O)O` (stereo partly drawn) [Compound A2, N—(N-benzylsuccinimidyl)amphotericin B], for which the “Antifungal activity MIC” value was 4 µg/mL in data set [1]; 8 µg/mL in data set [2]; 8 µg/mL in data set [3]; 2 µg/mL in data set [4]; 4 µg/mL in data set [5]; 4 µg/mL in data set [6]. In data set [6], the “Antifungal activity IC50” value turned out to be 2.22 µg/mL. The “Hemotoxi EH50” value in data set [7] was more than 100 µg/mL.
Turning to `C[C@@H]1[C@H](O)[C@@H](C)/C=C/C=C/C=C/C=C/C=C/C=C/C=C/[C@H](O[C@@H]2O[C@H](C)[C@@H](O)[C@H](NC3CC(=O)N(c4ccc(Br)cc4)C3=O)[C@@H]2O)C[C@@H]2O[C@](O)(C[C@@H](O)C[C@@H](O)[C@H](O)CC[C@@H](O)C[C@@H](O)CC(=O)O[C@H]1C)C[C@H](O)[C@H]2C(=O)O` (stereo partly drawn) [Compound A3, N—[N-(4-bromophenyl)succinimidyl]amphotericin B], the “Antifungal activity MIC” value in data set [1] came to 4 µg/mL; in data set [2], 8 µg/mL; in data set [3], 8 µg/mL; in data set [4], 4 µg/mL; in data set [5], 4 µg/mL; in data set [6] it was 4 µg/mL. Moreover, the “Antifungal activity IC50” value in data set [6] worked out at 2.85 µg/mL. The “Hemotoxi EH50” value in data set [7] was more than 100 µg/mL.
In the case of `C[C@@H]1[C@H](O)[C@@H](C)/C=C/C=C/C=C/C=C/C=C/C=C/C=C/[C@H](O[C@@H]2O[C@H](C)[C@@H](O)[C@H](NC3CC(=O)N(c4ccccc4C(C)(C)C)C3=O)[C@@H]2O)C[C@@H]2O[C@](O)(C[C@@H](O)C[C@@H](O)[C@H](O)CC[C@@H](O)C[C@@H](O)CC(=O)O[C@H]1C)C[C@H](O)[C@H]2C(=O)O` (stereo partly drawn) [Compound A4, N—[N-(2-tert-butylophenyl)succinimidyl]amphotericin B], the “Antifungal activity MIC” value in data set [1] is 4 µg/mL; in data set [2], 8 µg/mL; in data set [3] it was 8 µg/mL; in data set [4] it was 4 µg/mL; in data set [5] it was 4 µg/mL; in data set [6] it was 4 µg/mL. The “Antifungal activity IC50” value in data set [6] came out at 3.11 µg/mL. In data set [7], the “Hemotoxi EH50” value was more than 100 µg/mL.
`C[C@@H]1[C@H](O)[C@@H](C)/C=C/C=C/C=C/C=C/C=C/C=C/C=C/[C@H](O[C@@H]2O[C@H](C)[C@@H](O)[C@H](NC3CC(=O)N(c4ccc([N+](=O)[O-])cc4)C3=O)[C@@H]2O)C[C@@H]2O[C@](O)(C[C@@H](O)C[C@@H](O)[C@H](O)CC[C@@H](O)C[C@@H](O)CC(=O)O[C@H]1C)C[C@H](O)[C@H]2C(=O)O` (stereo partly drawn) [Compound A5, N—[N-(4-nitrophenyl)succinimidyl]amphotericin B]: the “Antifungal activity MIC” value was 4 µg/mL in data set [1]; 4 µg/mL in data set [2]; 4 µg/mL in data set [3]; 2 µg/mL in data set [4]; 4 µg/mL in data set [5]; 4 µg/mL in data set [6]. Further, in data set [6], the “Antifungal activity IC50” value was 1.94 µg/mL. Further, the “Hemotoxi EH50” value in data set [7] is more than 100 µg/mL.
On to `C[C@@H]1[C@H](O)[C@@H](C)/C=C/C=C/C=C/C=C/C=C/C=C/C=C/[C@H](O[C@@H]2O[C@H](C)[C@@H](O)[C@H](NC3CC(=O)N(CC(C)(C)CN(C)C)C3=O)[C@@H]2O)C[C@@H]2O[C@](O)(C[C@@H](O)C[C@@H](O)[C@H](O)CC[C@@H](O)C[C@@H](O)CC(=O)O[C@H]1C)C[C@H](O)[C@H]2C(=O)O` (stereo partly drawn) [Compound A7, N-{N-[3-(N,N-dimethylamino)-2,2-dimethylpropyl]succinimidyl}amphotericin B], for which the “Antifungal activity MIC” value in data set [1] amounted to 4 µg/mL; in data set [2], 4 µg/mL; in data set [3] it was 4 µg/mL; in data set [4], 1 µg/mL; in data set [5], 2 µg/mL; in data set [6] it was 2 µg/mL. The “Antifungal activity IC50” value in data set [6] is 0.70 µg/mL. The “Hemotoxi EH50” value in data set [7] was more than 100 µg/mL.
Regarding `C[C@@H]1[C@H](O)[C@@H](C)/C=C/C=C/C=C/C=C/C=C/C=C/C=C/[C@H](O[C@@H]2O[C@H](C)[C@@H](O)[C@H](NC3CC(=O)N(CCO)C3=O)[C@@H]2O)C[C@@H]2O[C@](O)(C[C@@H](O)C[C@@H](O)[C@H](O)CC[C@@H](O)C[C@@H](O)CC(=O)O[C@H]1C)C[C@H](O)[C@H]2C(=O)O` (stereo partly drawn) [Compound A8, N—[N-(2-hydroxyethyl)succinimidyl]amphotericin B], the “Antifungal activity MIC” value in data set [1] is 4 µg/mL; in data set [2], 8 µg/mL; in data set [3], 8 µg/mL; in data set [4], 4 µg/mL; in data set [5], 4 µg/mL; in data set [6] it was 4 µg/mL. Moreover, the “Antifungal activity IC50” value in data set [6] amounted to 1.36 µg/mL. Also, in data set [7], the “Hemotoxi EH50” value was more than 100 µg/mL.
In the case of `C[C@@H]1[C@H](O)[C@@H](C)/C=C/C=C/C=C/C=C/C=C/C=C/C=C/[C@H](O[C@@H]2O[C@H](C)[C@@H](O)[C@H](NCc3ccc(-c4ccccc4)cc3)[C@@H]2O)C[C@@H]2O[C@](O)(C[C@@H](O)C[C@@H](O)[C@H](O)CC[C@@H](O)C[C@@H](O)CC(=O)O[C@H]1C)C[C@H](O)[C@H]2C(=O)O` [Compound A20, N-[(4-biphenyl)methyl]amphotericin B], the “Antifungal activity MIC” value in data set [1], in data set [2], in data set [3], in data set [4], in data set [5] and in data set [6] was 4 µg/mL in each case. The “Antifungal activity IC50” value in data set [6] was determined as 1.63 µg/mL. Besides, the “Hemotoxi EH50” value in data set [7] (human erythrocytes, 37° C., 30 minutes) was more than 100 µg/mL.
On to `C[C@@H]1[C@H](O)[C@@H](C)/C=C/C=C/C=C/C=C/C=C/C=C/C=C/[C@H](O[C@@H]2O[C@H](C)[C@@H](O)[C@H](NCc3ccc(C(C)(C)C)cc3)[C@@H]2O)C[C@@H]2O[C@](O)(C[C@@H](O)C[C@@H](O)[C@H](O)CC[C@@H](O)C[C@@H](O)CC(=O)O[C@H]1C)C[C@H](O)[C@H]2C(=O)O` [Compound A21, N-(4-tert-butylbenzyl)amphotericin B], for which the “Antifungal activity MIC” value in data set [1] came to 4 µg/mL; in data set [2], 4 µg/mL; in data set [3], 4 µg/mL; in data set [4] it was 2 µg/mL; in data set [5], 4 µg/mL; in data set [6] it was 4 µg/mL. Also, the “Antifungal activity IC50” value in data set [6] worked out at 1.58 µg/mL. The “Hemotoxi EH50” value in data set [7] was more than 100 µg/mL.
